What was measured:
JJN3 cells = assay: MTT assay, PBK inhibitor alone or combined with lenalidomide or bortezomib; type: cell-based, human; details: JJN3 (IMiD resistant cell line)
Procedure: (§1) FIGS. 11A and 11B show MM cell growth and drug response after depletion of PRR11 using CRISPR-Cas9 technology or inhibition of PBK in HMCLs. (A) The lentivirus harboring non-targeting control (NS) and two PRR11 CRISPR gRNAs (#1 and #2) expressing cassette were used to infect two MM cell lines (JJN3 and […]). After confirming depletion of PRR11 in HMCLs by western blot (bottom), an MTT assay was performed to evaluate cell proliferation and drug response to lenalidomide or bortezomib in both control virus-transduced cells and cells with PRR11 depletion. Depletion of PRR11 neither changed MM cell proliferation nor affected lenalidomide and bortezomib sensitivity. (B) JJN3 and XG1LenRes, IMiD resistant cell lines, were treated with a PBK specific inhibitor, HI-TOPK-032 alone (Calbiochem) or combined with either lenalidomide (Len) or bortezomib (Bor) to evaluate synergy by the MTT assay. Inhibition of PBK activity using Hi-TOPK-032, enhanced both lenalidomide and bortezomib sensitivity in JJN3 and XG1LenRes cells.
(§2) Analysis of NM cell proliferation and drug response after modulating PRR11 expression and PBK1 activity: PRR11 and PBK1 expression also was associated with survival and drug response in the CoMMpass dataset. Using CRISPR-Cas9 technology, MM cell proliferation and drug response were investigated after depletion of PRR11. Briefly, the lentivirus harboring non-targeting control and two PRR11 CRISPR gRNA expressing cassettes were prepared and used to infect MM cell lines using methods described elsewhere (Ran et al., Nat Protoc 8(11):2281-2308, 2013; and Zhu et al., Cancer Res 77(16):4317-4327, 2017). After confirming depletion of PRR11 in HMCLs by western blot, an MTT assay was performed to evaluate cell proliferation and drug response to lenalidomide or bortezomib in both control virus-transduced cells and cells with PRR11 depletion. For PBK, JJN3 and XG1LenRes (IMiD resistant cell lines) were treated with a PBK specific inhibitor (HI-TOPK-032; Calbiochem; San Diego, CA) either alone or in combination with either lenalidomide or bortezomib to evaluate their effects by MTT assay.

XG1LenRes cells = assay: as above; type: cell-based, human; details: XG1LenRes (IMiD resistant cell line)
Procedure: as §1, §2

N#Cc1c2nc3ccccc3nc2n2ccc(NC(=O)c3cccs3)cc12 [Hi-TOPK-032]
enhanced: bortezomib sensitivity (JJN3 cells; combined with bortezomib) | lenalidomide sensitivity (JJN3 cells; combined with lenalidomide) | bortezomib sensitivity (XG1LenRes cells; combined with bortezomib) | lenalidomide sensitivity (XG1LenRes cells; combined with lenalidomide)

Reference: patent US20240150843A1, “METHODS AND MATERIALS FOR IDENTIFYING MYELOMA STAGE AND DRUG SENSITIVITY AND TREATING MYELOMA” (Mayo Foundation for Medical Education and Research, priority 2021, published 2024)
